Measured values reported in ChEMBL document CHEMBL4229478, “Synthesis, Characterization, and Biological Evaluation of a Porphyrin-Based Photosensitizer and Its Isomer for Effective Photodynamic Therapy against Breast Cancer” (J Med Chem, 2018).
Calls of active or inactive are those of the source. The rule behind the calls is not given here.

What was measured:
[1] = Dark toxicity against mouse 4T1 cells assessed as cell viability at 5 uM after 24 hrs by MTT assay; format: cell-based; conditions: 4t1, 24 h
MDA-MB-231 [2] = assay: Induction of apoptosis in human MDA-MB-231 cells assessed as late apoptotic cells after 24 hrs upon light irradiation by Annexin-V FITC/propidium iodide staining based flow cytometric analysis (reference value: 1.28%); format: functional
Mus musculus [3] = assay: Toxicity in BALB/c mouse xenografted with mouse 4T1 cells assessed as effect on body weight at 4 mg/kg, iv measured at day 22 post last dose; format: organism-based; conditions: in vivo
[4] = Selectivity index, ratio of dark toxicity against human MDA-MB-231 cells at 5 uM to phototoxicity against human MDA-MB-231 cells at 5 uM; format: cell-based; conditions: read-out: Selectivity Index
Mus musculus [5] = assay: Toxicity in BALB/c mouse xenografted with mouse 4T1 cells assessed as effect on body weight at 4 mg/kg, iv pre-tretaed for 24 hrs followed by 50 J/cm2 light irradiation and measured at day 22 post dose; format: organism-based; conditions: in vivo
[6] = Drug uptake in spleen of BALB/c mouse xenografted with mouse 4T1 cells at 10 mg/kg, iv measured at 12 hrs post injection by IVIS spectrum imaging; format: ADME, organism-based; conditions: in vivo
[7] = Drug uptake in kidney of BALB/c mouse xenografted with mouse 4T1 cells at 10 mg/kg, iv measured at 12 hrs post injection by IVIS spectrum imaging; format: ADME, organism-based; conditions: in vivo
MDA-MB-231 [8] = assay: Induction of apoptosis in human MDA-MB-231 cells assessed as early apoptotic cells after 24 hrs by Annexin-V FITC/propidium iodide staining based flow cytometric analysis (reference value: 1.22%); format: cell-based; conditions: mda-mb-231, 24 h
4T1 [9] = assay: Induction of apoptosis in mouse 4T1 cells xenografted in BALB/c mouse at 4 mg/kg, iv pretreated for 24 hrs followed by 50 J/cm2 light irradiation by TUNEL assay; format: functional, organism-based
Mus musculus [10] = assay: Toxicity in BALB/c mouse xenografted with mouse 4T1 cells assessed as pathological changes in spleen at 4 mg/kg, iv pre-tretaed for 24 hrs followed by 50 J/cm2 light irradiation and measured at day 22 post dose by hematoxylin and eosin staining based light microscopic analysis; format: organism-based; conditions: in vivo
[11] = Drug uptake in lung of BALB/c mouse xenografted with mouse 4T1 cells at 10 mg/kg, iv measured at 12 hrs post injection by IVIS spectrum imaging; format: ADME, organism-based; conditions: in vivo
MDA-MB-231 [12] = assay: Induction of apoptosis in human MDA-MB-231 cells assessed as necrotic cells after 24 hrs upon light irradiation by Annexin-V FITC/propidium iodide staining based flow cytometric analysis (reference value: 4.24%); format: functional
MDA-MB-231 [13] = assay: Induction of apoptosis in human MDA-MB-231 cells assessed as necrotic cells after 24 hrs by Annexin-V FITC/propidium iodide staining based flow cytometric analysis (reference value: 4.24%); format: cell-based; conditions: mda-mb-231, 24 h
[14] = Dark toxicity against human MCF7 cells assessed as cell viability at 5 uM after 24 hrs by MTT assay; format: cell-based; conditions: mcf7, 24 h
[15] = Drug uptake in human MDA-MB-231 cells at 5 to 10 uM after 4 hrs by fluorescence microscopic analysis; format: ADME, cell-based; conditions: mda-mb-231, 4 h
[16] = Dark toxicity against human MDA-MB-231 cells assessed as cell viability at 5 uM after 24 hrs by MTT assay; format: cell-based; conditions: mda-mb-231, 24 h
Mus musculus [17] = assay: Hepatotoxicity in BALB/c mouse xenografted with mouse 4T1 cells assessed as pathological changes in liver at 4 mg/kg, iv pre-tretaed for 24 hrs followed by 50 J/cm2 light irradiation and measured at day 22 post dose by hematoxylin and eosin staining based light microscopic analysis; format: toxicity, organism-based; conditions: in vivo
MDA-MB-231 [18] = assay: Induction of apoptosis in human MDA-MB-231 cells assessed as early apoptotic cells after 24 hrs upon light irradiation by Annexin-V FITC/propidium iodide staining based flow cytometric analysis (reference value: 1.22%); format: functional
[19] = Tmax in tumor of BALB/c mouse xenografted with mouse 4T1 cells at 10 mg/kg, iv measured after […] by fluorescence assay; format: ADME, organism-based, Neoplasm
[20] = Drug uptake in mitochondria of human MDA-MB-231 cells after 4 hrs by Mito tracker green-based confocal laser scanning microscopic analysis; format: ADME; conditions: mda-mb-231, 4 h
[21] = Drug uptake in tumor of BALB/c mouse xenografted with mouse 4T1 cells at 10 mg/kg, iv measured at 12 hrs post injection by IVIS spectrum imaging; format: ADME, organism-based, Neoplasm; conditions: in vivo
[22] = Drug uptake in human MDA-MB-231 cells up to 10 uM after 4 hrs by flow cytometric analysis; format: ADME, cell-based; conditions: mda-mb-231, 4 h
MDA-MB-231 [23] = assay: Induction of ROS generation in human MDA-MB-231 cells incubated with DCF-DA probe for 30 mins by flow cytometric analysis (reference value: 4.38%); format: cell-based; conditions: mda-mb-231, 0.5 h
MDA-MB-231 [24] = assay: Induction of apoptosis in human MDA-MB-231 cells assessed as viable cells after 24 hrs upon light irradiation by Annexin-V FITC/propidium iodide staining based flow cytometric analysis (reference value: 93.27%); format: functional
[25] = Drug uptake in heart of BALB/c mouse xenografted with mouse 4T1 cells at 10 mg/kg, iv measured at 12 hrs post injection by IVIS spectrum imaging; format: ADME, organism-based; conditions: in vivo
MDA-MB-231 [26] = assay: Induction of ROS generation in human MDA-MB-231 cells incubated with DCF-DA probe for 30 mins prior to ROS scavenger NAC addition 1 hr before 2 J/cm2 light irradiation and measured after 1 hr post irradiation by flow cytometric analysis; format: functional, cell-based
Mus musculus [27] = assay: Nephrotoxicity in BALB/c mouse xenografted with mouse 4T1 cells assessed as pathological changes in kidney at 4 mg/kg, iv pre-tretaed for 24 hrs followed by 50 J/cm2 light irradiation and measured at day 22 post dose by hematoxylin and eosin staining based light microscopic analysis; format: toxicity, organism-based; conditions: in vivo
[28] = Induction of singlet oxygen generation in cell free condition upon 635 nm semiconductor laser light irradiation by singlet oxygen sensor green dye based fluorescence spectrophotometeric analysis; format: functional
MDA-MB-231 [29] = assay: Induction of ROS generation in human MDA-MB-231 cells incubated with DCF-DA probe for 30 mins followed by 2 J/cm2 light irradiation and measured after 1 hr by flow cytometric analysis (reference value: 4.38%); format: functional
Mus musculus [30] = assay: Toxicity in BALB/c mouse xenografted with mouse 4T1 cells assessed as pathological changes in lung at 4 mg/kg, iv pre-tretaed for 24 hrs followed by 50 J/cm2 light irradiation and measured at day 22 post dose by hematoxylin and eosin staining based light microscopic analysis; format: organism-based; conditions: in vivo
[31] = Selectivity index, ratio of dark toxicity against mouse 4T1 cells at 5 uM to phototoxicity against mouse 4T1 cells at 5 uM; format: cell-based; conditions: read-out: Selectivity Index
4T1 [32] = assay: Antitumor activity against mouse 4T1 cells xenografted in BALB/c mouse assessed as tumor growth inhibition at 4 mg/kg, iv pretreated for 24 hrs followed by 50 J/cm2 light irradiation and measured at day 22 post last dose; format: functional, organism-based
[33] = Drug uptake in tumor of BALB/c mouse xenografted with mouse 4T1 cells at 10 mg/kg, iv measured up to 3 to 24 hrs post injection by fluorescence assay; format: ADME, organism-based, Neoplasm; conditions: in vivo
MCF7 = assay: Phototoxicity against human MCF7 cells assessed as cell viability at 5 uM preincubated for 4 hrs followed by 0.5 to 2 J/cm2 light irradiation and measured after 24 hrs by MTT assay; format: functional, cell-based
MDA-MB-231 [34] = assay: Induction of apoptosis in human MDA-MB-231 cells assessed as late apoptotic cells after 24 hrs by Annexin-V FITC/propidium iodide staining based flow cytometric analysis (reference value: 1.28%); format: cell-based; conditions: mda-mb-231, 24 h
[35] = Selectivity index, ratio of dark toxicity against human MCF7 at 5 uM cells to phototoxicity against human MCF7 cells at 5 uM; format: cell-based; conditions: read-out: Selectivity Index
[36] = Induction of apoptosis in human MDA-MB-231 cells assessed as viable cells after 24 hrs by Annexin-V FITC/propidium iodide staining based flow cytometric analysis (reference value: 93.27%); format: cell-based; conditions: read-out: Activity
4T1 [37] = assay: Phototoxicity against mouse 4T1 cells assessed as cell viability at 5 uM preincubated for 4 hrs followed by 0.5 to 2 J/cm2 light irradiation and measured after 24 hrs by MTT assay; format: functional, cell-based
MDA-MB-231 [38] = assay: Phototoxicity against human MDA-MB-231 cells assessed as cell viability at 5 uM preincubated for 4 hrs followed by 0.5 to 2 J/cm2 light irradiation and measured after 24 hrs by MTT assay; format: functional, cell-based

COC(C)C1=C(C)c2cc3[nH]c(cc4nc(cc5[nH]c(cc1n2)c(C)c5CCC(=O)O)C(CCC(=O)O)=C4C)c(C)c3C(C)O (centres undefined)
Activity [1]: Non-Toxic
Activity (MDA-MB-231 [2]): 30.5%
Activity (Mus musculus [3]): Non-Toxic
selectivity ratio at 5 µM [4]: 18.8
Activity (Mus musculus [5]): Non-Toxic
Drug uptake [6]: Not Active
Drug uptake [7]: Not Active
Activity (MDA-MB-231 [8]): 1.99%
Activity (4T1 [9]): Active
Activity (Mus musculus [10]): Non-Toxic
Drug uptake [11]: Not Active
Activity (MDA-MB-231 [12]): 6.83%
Activity (MDA-MB-231 [13]): 4.02%
Activity [14]: Non-Toxic
Drug uptake [15]: Not Active
Activity [16]: Non-Toxic
Activity (Mus musculus [17]): Non-Toxic
Activity (MDA-MB-231 [18]): 3.91%
Tmax [19]: 12 h
Drug uptake [20]: Active
Drug uptake [21]: Active
Drug uptake [22]: Not Active
Activity (MDA-MB-231 [23]): 5.7%
Activity (MDA-MB-231 [24]): 58.77%
Drug uptake [25]: Not Active
Activity (MDA-MB-231 [26]): inactive
Activity (Mus musculus [27]): Non-Toxic
Activity [28]: Dose-dependent effect
Activity (MDA-MB-231 [29]): 25.13%
Activity (Mus musculus [30]): Non-Toxic
selectivity ratio at 5 µM [31]: 12
TGI (4T1 [32]): inactive
Drug uptake [33]: Active
Activity (MCF7): Active
Activity (MDA-MB-231 [34]): 1.76%
selectivity ratio at 5 µM [35]: 16.8
viability at 24 h [36]: 92.2%
Activity (4T1 [37]): Active
Activity (MDA-MB-231 [38]): Active
